The text below walks through data of US9493402B2, “Omega-aminoalkylamides of R-2-aryl-propionic acids as inhibitors of the chemotaxis of polymorphonucleate and mononucleate cells” (Dompé S.p.A., priority 2001, dated 2016).

Structures can show the parent of a compound that is named as a salt.

The test system of data set [1] is human circulating polymorphonucleates (PMNs), C5a induced chemotaxis. Put plainly: C5a-induced chemotaxis of human PMNs (microchamber assay). The class given is cell-based. As to conditions: compound 10^-5 M (so in the source), C5a 1 ng/mL. As to the method:
(§1) The compounds of the invention of formula (I) were evaluated “in vitro” for their ability to inhibit chemotaxis of polymorphonucleate leukocytes (hereinafter referred to as PMNs) and monocytes, induced by the fractions of the complement C5a and C5a-desArg. For this purpose, to isolate the PMNs from heparinized human blood, taken from healthy adult volunteers, mononucleates were removed by means of sedimentation on dextrane (according to the procedure disclosed by W. J. Ming et al., J. Immunol., 138, 1469, 1987) and red blood cells by a hypotonic solution. The cell vitality was calculated by exclusion with Trypan blue, whilst the ratio of PMNs was estimated on the cytocentrifugate after staining with Diff Quick.
The fractions hr-C5a and hrC5a-desArg (Sigma) were used as stimulating agents in chemotaxis experiments, obtaining practically identical results.
Lyophilized C5a was dissolved in a volume of HBSS containing 0.2% BSA so as to obtain a stock solution having a concentration of 10^−5 M, to be diluted in HBSS to a concentration of 10^−9 M, for the chemotaxis assays.
(§2) In the chemotaxis experiments, the PMNs were incubated with the compounds of the invention of formula (I) for 15′ at 37° C. in an atmosphere containing 5% CO2.
(§3) The chemotactic activity of the C5a was evaluated on human circulating polymorphonucleates (PMNs) resuspended in HBSS at a concentration of 1.5×10^6 PMNs per ml.
(§4) During the chemotaxis assay (according to W. Falket et al., J. Immunol. Methods, 33, 239, 1980) PVP-free filters with a porosity of 5 mcm and microchambers suitable for carrying out the test were used.
[…] The wells in the lower part contain the solution of C5a or the simple carrier, those in the upper part contain the suspension in PMNs.
Inhibition of C5a-induced chemotactic activity by the individual compounds of the invention of formula (I) was evaluated by incubating the microchamber for the chemotaxis for 60 min at 37° C. in an atmosphere containing 5% CO2.

Data set [2] has as its system human PMNs (rhIL-8 induced chemotaxis). Put plainly: IL-8-induced chemotaxis of human PMNs (microchamber assay). Format: cell-based. As to conditions: IL-8 10 ng/mL; for inhibition at 0.01 µM: compound 10^-8 M; for inhibition at 1 µM: compound c = 10^-6 M. How it is done: as §1, §2, §3, §4
The compounds of the invention in formula (I) were evaluated at a concentration ranging between 10^−6 and 10^−10 M; for this purpose they were added, at the same concentration, both to the lower pores and the upper pores of the microchamber. The wells in the lower part contain the solution of C5a or the simple carrier, those in the upper part contain the suspension in PMNs.
The compounds of the invention were also evaluated in their ability to inhibit IL-8-induced chemotaxis of human PMNs. For this purpose, recombinant human interleukin-8 (rhIL-8, Pepro Tech) was used: the lyophilized protein was dissolved in HBSS (Hank's balanced salts solution) at the concentration of 100 mcg/mL and then diluted down to a concentration of 10 ng/mL in the chemotaxis experiments. R(−)-2-[(4′-isobutyl)phenyl]-propionyl methansulfonamide (ED50=10^−9 M) described in WO 00/24710, was used as reference standard.

Data set [3] has the same test system. The settings on record: reference standard; rhIL-8 10 ng/mL; read-out: ED50 (inhibition of IL-8-induced chemotaxis of human PMNs); cited from earlier work.

In data set [1] (1 h), `CC(C)Cc1ccc([C@@H](C)C(=O)NC2CCN(C)CC2)cc1` [(R) 2-(4-isobutylphenyl)-N-(1-methyl-piperidin-4-yl)propionamide hydrochloride] displayed an inhibition at 10 µM of 48 ± 8%. In addition, the inhibition at 0.01 µM in data set [2] stood at 4 ± 9%.

As for `CC(C)Cc1ccc([C@@H](C)C(=O)NS(C)(=O)=O)cc1` [R(−)-2-[(4′-isobutyl)phenyl]-propionyl methansulfonamide], the EC50 in data set [3] is 1 nM.

With `C[C@@H](C(=O)NCCCN(C)C)c1ccccc1Nc1c(Cl)cccc1Cl` [(R)-2-[2-(2,6-dichlorophenylamino)-phenyl]-N-3-(dimethylaminopropyl) propionamide], 10 µM produced 41 ± 2% inhibition in data set [1] (1 h). For the same compound, 10 µM produced 41 ± 2% inhibition in data set [1]. In data set [2], the inhibition at 0.01 µM worked out at 1 ± 13% and at 1 µM the inhibition was 58 ± 6%.

The compound `CC(C)Cc1ccc([C@@H](C)C(=O)NCCN(C)C)cc1.Cl` [(R)-2-(4-isobutylphenyl)-N-(2-dimethylaminoethyl)propionamide.HCl] showed a melting point of 90 to 93 °C. In data set [1] (1 h), this compound came in with an inhibition at 10 µM of 62 ± 12%. The compound further showed an inhibition at 0.01 µM in data set [2] of 56 ± 13%.

`CC(C)Cc1ccc([C@@H](C)C(=O)NCCCN2CCCCC2)cc1.Cl` [(R) 2-(4-isobutylphenyl)-N-[3-(1-piperidinyl)propyl]propionamide hydrochloride] gave a melting point of 76 to 80 °C. Further, the inhibition at 10 µM in data set [1] (1 h) came out at 76 ± 6%. In addition, in data set [2], the inhibition at 0.01 µM amounted to 46 ± 8%.

On to `CC(C)Cc1ccc([C@@H](C)C(=O)NCCCN2CCN(C)CC2)cc1.Cl.Cl`, for which the melting point is 216 to 220 °C.

As to `CC(C)Cc1ccc([C@@H](C)C(=O)NCCCN2CCOCC2)cc1.Cl` [(R) 2-(4-isobutylphenyl)-N-3-(N-morpholinylpropyl)propionamide.HCl], the melting point lay within 90 to 93 °C. In data set [1] (1 h), this compound showed an inhibition at 10 µM of 24 ± 11%. Moreover, at 0.01 µM the inhibition in data set [2] was 55 ± 12%.

The compound `CC(C)c1cccc([C@@H](C)C(=O)NCCCN(C)C)c1` [(R) 2-(3-isopropylphenyl)-N-3-(dimethylaminopropyl)propionamide] registered an inhibition at 10 µM in data set [1] (1 h) of 42 ± 18%. The inhibition at 10 µM in data set [1] amounted to 42 ± 18%. In data set [2], this compound displayed an inhibition at 0.01 µM of 5 ± 6% and an inhibition at 1 µM of 48 ± 2%.

As for `CC(C)Cc1ccc([C@@H](C)C(=O)NCCCN(C)C)cc1.Cl` [(R) 2-(4-isobutylphenyl)-N-(3-dimethylaminopropyl)propionamide hydrochloride], the melting point was 95 to 98 °C. Besides, in data set [1] (1 h), testing at 10 µM gave an inhibition of 65 ± 14%. In data set [2], this compound gave an inhibition at 0.01 µM of 51 ± 15%.

Compound `CC(C)Cc1ccc([C@@H](C)C(=O)NCC(=O)NCCN(C)C)cc1` [R-2-[(4′-isobutylphenyl]-N-[2-(dimethylaminoethyl)aminocarbonylmethyl]-propionamide hydrochloride] showed an inhibition at 10 µM in data set [1] (1 h) of 68 ± 4%. Also, the inhibition at 0.01 µM in data set [2] is 31 ± 6%.

Compound `CC(C)Cc1ccc([C@@H](C)C(=O)NCCCCN(C)C)cc1.Cl` [(R) 2-(4-isobutylphenyl)-N-(4-dimethylaminobutyl)propionamide. HCl] came in with a melting point of 95 to 97 °C. The compound also gave an inhibition at 10 µM in data set [1] (1 h) of 55 ± 8%. The inhibition at 0.01 µM in data set [2] was 34 ± 6%.

The compound `CC(C)Cc1ccc([C@@H](C)C(=O)N[C@@H]2C[C@H]3CC[C@@H](C2)N3C)cc1` [(R) 2-(4-isobutylphenyl)-N-(exo-8-methyl-8-aza-bicyclo[3.2.1]oct-3-yl)propionamide hydrochloride] gave an inhibition at 10 µM in data set [1] (1 h) of 57 ± 6%. The inhibition at 0.01 µM in data set [2] was 3 ± 8%.

As for `CC(C)Cc1ccc([C@@H](C)C(=O)NCCCN)cc1` [(R) 2-(4-isobutylphenyl)-N-(3-aminopropyl)propionamide hydrochloride], at 10 µM the inhibition in data set [1] (1 h) was 84 ± 8%. Besides, at 0.01 µM the inhibition in data set [2] was 2 ± 7%.

The compound `C[C@@H](C(=O)NCCCN(C)C)c1cccc(C(=O)c2ccccc2)c1` [(R)-2-[(3-benzoyl)phenyl]-N-(3-dimethylaminopropyl)propionamide] displayed an inhibition at 10 µM in data set [1] (1 h) of 56 ± 2%. The compound further registered an inhibition at 0.01 µM in data set [2] of 53 ± 8%.

`CC(C)Cc1ccc([C@@H](C)C(=O)NC(CCCCN)C(=O)O)cc1` (stereo partly drawn) [(R),(S′) 2-(4′-isobutylphenyl)-N-(1-carboxy-5-aminopentyl)propionamide hydro-chloride] came in with an inhibition at 10 µM in data set [1] (1 h) of 49%. For the same compound, in data set [2], the inhibition at 0.01 µM was determined as 5%.

In data set [1] (1 h), `CC(C)Cc1ccc([C@@H](C)C(=O)N[C@@H](CCCN2CCCCC2)C(=O)O)cc1` [sodium salt] displayed an inhibition at 10 µM of 33 ± 15%. Besides, in data set [2], at 0.01 µM the inhibition was 56 ± 9%.

The inhibition is the change of the read-out against control, counted positive when it falls. Low values mean a weak effect, high ones a strong effect. One may read the melting point as the temperature, or range, at which the solid turns liquid.
